According to patent US20010046986A1, “Method for controlling flies” (priority 2000, published 2001):

System: Musca domestica
Conditions: female Musca domestica imagoes of a sensitive strain; oral, 1 μL of 50 ppm liquid composition in 5% granulated sugar solution (0.05 μg clothianidin); after 24 hours
Protocol: Insecticidal test by oral administration to Musca domestica
A clothianidin solution in alcohol was diluted with 5% granulated sugar solution to prepare a 50 ppm liquid composition of clothianidin.
Female Musca domestica imagoes (ten flies) of a sensitive strain kept without water for 3˜4 hours were anesthetized and lightly fixed to a pressure sensitive adhesive sheet which was cut into strips. After the test insects came out from the anesthetic, 1 μL of the liquid composition (containing 0.05 μg of clothianidin) was released from an injection needle attached to a micro dropper so that the test insects inhaled the composition.

Question: For CN/C(=N\[N+](=O)[O-])NCc1cnc(Cl)s1 [clothianidin, (E)-1-(2-chloro-1,3-thiazol-5-ylmethyl)-3-methyl-2-nitroguanidine], which “insecticidal effect (flies dead)” value is on record?
Answer: all flies were dead
